Data published in patent US20070161644A1, “Erastin analogs and uses thereof” (priority 2005, published 2007).

Columns and labels:
[1] = system: PANC-1 xenografts; assay: PANC-1 tumor treatment study; format: in vivo; settings: immunodeficient nude mouse; once a day for five consecutive days
Method: The experimental plan for the PANC-1 study was essentially identical to that of the HT-1080 study outlined above in Example 10 with the following exceptions: approximately 30-40 mg fragment of passaged PANC-1 tumor tissue was implanted subcutaneously in the right flank of an immunodeficient nude mouse. Tumor growth was monitored daily and when the tumors reached approximately 100 mm^3, animals harboring similarly sized tumors were group matched and compound dosing was initiated. Administration of compound 5 occurred once a day for five consecutive days at the doses listed below. In the PANC-1 xenografts, gemcitabine, administered at the maximum tolerated dose for the model, was used as a control. The gemcitabine regimen was 180 mg/kg […] on every third day over a period of 9 days.

[2] = system: HT-1080 xenografts; assay: HT-1080 tumor treatment study; format: in vivo, mouse; settings: nude Balb/c mice; 100 or 50 mg/Kg, QD×5 days, IP
Method: Nude Balb/c (Nu/Nu strain, Charles River Laboratories), female, 5-6 week. old (˜20 g average body weight).
Both compounds were formulated in an identical manner. For the 100 mg/kg dose level, each compound was delivered at a concentration of 10.0 mg/ml, in an injection volume of 0.2 ml. For the 50 mg/kg dose level, each compound was delivered at a concentration of 5.0 mg/ml, in an injection volume of 0.2 ml. For both dose levels, the vehicle contained 0.025% Tween-80, 0.01% benzyl alcohol, 35 mM acetic acid (HOAc), 100 mM potassium phosphate buffer, and 32 mM sucrose, pH=6.5.
Beginning when the mean tumor volume reached ˜200 mm^3, and continuing through day 5, every day, each animal was administered a single IP injection of one of the above treatments, for a total of 5 doses.
Each of 70 mice was implanted with 1×10^7 HT-1080 cells by SC injection of 0.1 cc of inoculum into the right hind flank. A 25 G×⅝″ needle size was used. […]
Starting on Day 1, all animals were weighed, and tumor dimensions (length (L) and width (W)) were measured, every other day. […]
The resulting tumor volume values were averaged for each study group for each time point, and were then plotted against time. Variance was expressed as standard error of the mean (±SEM).

[3] = system: BJELR; assay: Sytox primary screen; format: cell-based; settings: Homo sapiens, Sytox screen, 48 hours, read-out: IC50 in BJELR
From the text: The Sytox primary screen is a phenotypic assay which monitors alterations in cell survival-proliferation as a result of compound treatment. It was devised as high throughput method to identify compounds which specifically alter the growth potential of cells harboring the causative mutations found in cancer patients while not affecting the growth of normal cells.
The assay relies upon an inexpensive, simple and reliable readout of a membrane impermeable fluorescent dye (Sytox, from Molecular Probes) which binds to nucleic acid. In healthy cells, no signal is detected because the cell's membrane is intact and the dye will not enter. However, if a cell's membrane is compromised as a result of apoptosis or necrosis, a fluorescent signal proportional to the number of similarly affected cells will be detected. By utilizing a two-step readout (final read in the presence of detergent to permit labeling of all cells), the assay can identify compounds which produce cytostasis, cytotoxicity and/or mitogenesis. The first read or “dead cell” read provides an estimate of the toxicity of a given compound by indicating the number of dead or dying cells in the culture at the time of assay. The second read or “total cell” read captures both the cumulative effects of cytoxicity in reducing the size of the cell population as well as any cytostatic or anti-proliferative effects a test compound may exert on the cells in the test population in the absence of toxicity.
For the purpose of screening, the previously described BJ-TERT line was defined as the “normal” reference cell line and BJ-TERT/LT/ST/RAS^V12 cells were the tumorigenic cell line. Cells were seeded overnight in 96 well plates at densities which without treatment would permit 95% confluence in the wells 72 H later. The following day, the cells were exposed to test compounds in a dilution series for a period of 48 hours. Following this incubation period, the Sytox reagent was added to the cultures at the manufacturer's recommended concentration and the dead cell fluorescence read was taken. After completion of this measurement, the detergent Saponin was added to each well of the cultures to permeabilize the membranes allowing the Sytox reagent to enter every cell thereby, facilitating measurement of the total number of cells remaining in the culture.

[4] = system: BJ-TERT/LT/ST/RAS^V12 cells relative to BJ-TERT cells; assay: Alamar Blue viability assay, tumorigenic versus wild type cells; format: cell-based, human
Method: Alamar Blue is reduced by mitochondrial enzyme activity in viable cells, causing both colorimetric and fluorescent changes (Nociari et al., 1998, J. Immunol. Methods 13, 157-167). Cells were seeded at a density of 6000 cells (50 μl) per well in a 384-well black, clear bottom plate using a syringe bulk dispenser (Zymark). 10 μl was removed from a two-fold serially diluted erastin plate (6× final concentration) using a 384 fixed cannula head, making the final concentration 20 μg/ml in the well with highest concentration. The plates were incubated for 24 hours. Alamar Blue (Biosource International) was added to each well by diluting 1:10 and incubated for 16 hours at 37° C. Fluorescence intensity was determined using a Packard Fusion platereader with an excitation filter centered on 535 nm and an emission filter centered on 590 nm. Average percentage inhibition at each concentration was calculated. Error bars indicate one standard deviation.
The effect of erastin or erastin B on cell viability was measured using Alamar Blue as described in Example 3 in both tumorigenic BJ-TERT/LT/ST/RAS^V12 (BJELR) cells and wild type BJ-TERT (BJEH) cells. In this example, cell viability was measured at 1, 2, and 3 days after treatment with erastin or erastin B (data for days 1 and 3 not shown). Average percentage inhibition at each concentration was measured.
The effect on cell viability of each of the two isomers of Compound 20 was measured using the Alamar Blue assay described in Example 3 in both tumorigenic BJ-TERT/LT/ST/RAS^V12 cells and wild type BJ-TERT cells. Average percentage inhibition at each concentration was measured.
The effect on cell viability of erastin or Compound 21 was measured using the Alamar Blue assay as described in Example 3 in both tumorigenic BJ-TERT/LT/ST/RAS^V12 cells and in wild type BJ-TERT cells. Average percentage inhibition at each concentration was measured. […]

[5] = system: BJ-TERT/LT/ST/RAS^V12 cells; assay: Calcein AM viability assay, dilution series; format: cell-based, human; settings: within 18 hours; BJ-TERT/LT/ST/RAS^V12 cells
Method: Described here is work carried out to identify compounds with increased potency or activity in the presence of hTERT, LT, ST, E6, E7 or RAS^V12. Although the work described herein made use of hTERT, LT, ST, E6, E7 and RAS^V12 as transforming genes, future studies can make use of a wide variety of cancer-associated alleles using this methodology in order to define the signaling networks that involve many oncogenes and tumor suppressors. […] Cell viability was measured using the dye calcein acetoxymethyl ester (calcein AM) (Wang et al., 1993, Hum. Immunol. 37, 264-270), which is a non-fluorescent compound that freely diffuses into cells. […]
Calcein acetoxylmethyl ester (AM) is a cell membrane-permeable, non-fluorescent compound that is cleaved by intracellular esterases to form the anionic, cell-impermeable, fluorescent compound calcein. […] Total fluorescence intensity in each well was recorded on a Packard Fusion platereader, and converted to a percent inhibition of signal by subtracting the instrument background and dividing by the average signal obtained when cells were not treated with any compound. […]
Mean RFU (relative fluorescence units) for untreated cells was calculated by averaging columns 1, 2, and 23 (wells with cells but lacking compounds). The calcein background was calculated by averaging column 24 (wells with calcein, but lacking cells). […]

[6] = system: BJ-TERT/LT/ST/RAS^V12 cells; assay: Annexin V-FITC apoptosis assay; format: cell-based, human; settings: erastin-treated (9 μM); untreated 6%
Method: BJ-TERT/LT/ST/RAS^V12 cells were seeded at 1×10^6 cells per dish in 100 mm dishes and allowed to grow overnight. Cells were treated with erastin (5 or 10 μg/ml) for 6, 8 or 11 h. A camptothecin-treated (0.4 μg/ml) control was maintained, treated at the time of seeding for 20 hours. After the treatment, cells were harvested with trypsin/EDTA and washed once with fresh medium containing serum and then twice with phosphate buffered saline. Cells were resuspended in 1× binding buffer (BD Pharmingen) at a concentration of 1×10^6 cells/ml. 100 μl (1×10^5 cells) was incubated with 5 μl of Annexin V-FITC (BD Pharmingen) and propidium iodiode (BD Pharmingen) for 15 minutes in the dark at room temperature. Then 400 μl of the 1× binding buffer was added and the cells analyzed by flow cytometry (Becton-Dickinson). Data were acquired and analyzed using Cellquest software.

SMILES | IC50 [3] [µM] | also measured
CCOc1ccccc1-n1c(C(C)N2CCNCC2)nc2ccccc2c1=O (centres unmarked) [Compound 6] | ≥ 1 | antitumor activity in PANC-1 xenografts [1]: tumor growth inhibition; antitumor activity in HT-1080 xenografts [2]: tumor growth inhibition
CCOc1ccccc1-n1c(CN2CCN(CC#N)CC2)nc2ccccc2c1=O [Compound 7] | ≥ 0.1 | –
CCOc1ccccc1-n1c(C(C)N2CCN(C)CC2)nc2ccccc2c1=O (centres unmarked) [Compound 8] | ≥ 1 | –
CCOc1ccccc1-n1c(C(C)N2CCN(CCO)CC2)nc2ccccc2c1=O (centres unmarked) [Compound 9] | ≥ 1 | –
CCOc1ccccc1-n1c(CN2CCN(C)CC2)nc2ccccc2c1=O [Compound 10] | ≥ 1 | –
CCOc1ccccc1-n1c(CN2CCN(CC)CC2)nc2ccccc2c1=O [Compound 11] | ≥ 0.1 | –
CCOc1ccccc1-n1c(CN2CCCN(C)CC2)nc2ccccc2c1=O [Compound 12] | < 0.1 | –
CCOc1ccccc1-n1c(CN2CCCNCC2)nc2ccccc2c1=O [Compound 13] | < 0.1 | –
CCOc1ccccc1-n1c(C(C)N2CCNCC2)nc2cc(Cl)ccc2c1=O (centres unmarked) [Compound 14] | ≥ 0.1 | –
O=c1c2ccccc2nc(CN2CCNCC2)n1-c1c(Cl)cccc1Cl [Compound 16] | ≥ 0.1 | –
CCN1CCN(Cc2nc3ccccc3c(=O)n2-c2c(Cl)cccc2Cl)CC1 [Compound 17] | ≥ 0.1 | –
CCOc1ccccc1-n1c(CN2CCN(C(=O)COc3ccc(Cl)cc3)CC2)nc2ccccc2c1=O [Compound 21, 2-({4-[(4-chlorophenoxy)acetyl]piperazin-1-yl}methyl)-3-(2-ethoxyphenyl)quinazolin-4(3H)-one] | – | lethality in BJ-TERT/LT/ST/RAS^V12 (BJELR) cells compared to BJ-TERT (BJEH) cells [4]: selective lethality; profile compared to erastin ([4]; both cell types): profile nearly identical to that of erastin
CCOc1ccccc1-n1c(C(C)N2CCN(C(=O)COc3ccc(Cl)cc3)CC2)nc2ccccc2c1=O (centres unmarked) [Erastin, 2-[1′-(N-(4″-chlorophenoxyacetyl)-N-piperazino]-ethyl]-3-(2′″-ethoxyphenyl)-quinazolin-4-one] | – | effectiveness (cell death) [5]: 100%; percentage of cells in M1 region (Annexin V staining) [6]: 6%
